Source: patent publication US20040142322A1, “Continuous non-radioactive polymerase assay” (priority 2002, published 2004)
Blank lines part the entries; values can stand above or below the compound they belong to.

How the values were obtained:
Assay type in all cases: biochemical
HCV NS5B = target: T1, HCV NS5B (Hepatitis C virus genotype 1b, UniProt P26663); assay: Continuous non-radioactive (luciferase-coupled) NS5B polymerase assay, inhibitor test; conditions: NS5B 20 nM, GTP 1 μM, inhibitor 0.1-2.5 μM, FIG. 3
T1 construct: The HCV NS5BΔ55 enzyme was prepared as described by Ferrari et al; made in house
T1 sequence (P26663 2420-2955): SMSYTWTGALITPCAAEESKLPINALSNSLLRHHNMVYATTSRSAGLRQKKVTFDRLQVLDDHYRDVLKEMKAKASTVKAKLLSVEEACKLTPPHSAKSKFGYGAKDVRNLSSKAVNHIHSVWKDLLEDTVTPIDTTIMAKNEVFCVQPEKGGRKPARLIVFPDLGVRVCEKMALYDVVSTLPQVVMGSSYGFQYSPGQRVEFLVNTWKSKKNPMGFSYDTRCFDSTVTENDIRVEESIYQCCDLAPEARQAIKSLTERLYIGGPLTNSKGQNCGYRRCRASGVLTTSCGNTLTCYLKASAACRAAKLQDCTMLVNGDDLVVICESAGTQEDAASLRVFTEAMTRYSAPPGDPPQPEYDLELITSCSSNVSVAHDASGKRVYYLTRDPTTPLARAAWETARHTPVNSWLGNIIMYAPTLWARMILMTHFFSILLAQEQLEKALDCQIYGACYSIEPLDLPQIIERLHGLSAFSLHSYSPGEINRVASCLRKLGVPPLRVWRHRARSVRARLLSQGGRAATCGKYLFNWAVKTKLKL
Procedure: Polymerase assays were performed at room temperature using a 100 μl reaction mix in a 96-well plate. Final reaction conditions for NS5B were modified from those used by Ferrari et al. J. Virol. 73:1649-54 (1999) [20 mM Hepes pH 7.3; 7.5 mM DTT; 20 U/ml RNAsin; 0.5 μg/ml oligo(G)12; 5 μg/ml poly(C); 1 μM GTP; 10 mM MgCl2; 60 mM NaCl; 100 μg/ml BSA; and NS5B]. NS5B assay mixtures were supplemented with components for the ATP sulfurylase and luciferase coupled enzyme reactions [0.5 mM coenzyme A (CoA); 310 μM D-luciferin; 1 nM luciferase; 5 μM APS; 0.03-0.3 U ATP sulfurylase (see Brief Description of the Drawings for specific conditions)]. […]
To test the effect of inhibitors on the NS5B polymerase reaction, compounds were diluted in the appropriate diluents and added to the GTP-containing mixture. Microtiter plates containing the reaction samples were immediately transferred to the luminometer for detection of the light signal generated over time, taking a 0.2-1.0 s reading of each well every 30-60 s (time intervals depend on the number of samples tested). Readings were monitored in comparison to a no-NS5B reaction as a control for ATP generation in the absence of polymerase activity. […]

firefly luciferase [1] = target: T2, firefly luciferase (Photinus pyralis, UniProt P08659)
T2 construct: purchased Promega (Madison, Wis.)
T2 sequence (P08659 whole entry): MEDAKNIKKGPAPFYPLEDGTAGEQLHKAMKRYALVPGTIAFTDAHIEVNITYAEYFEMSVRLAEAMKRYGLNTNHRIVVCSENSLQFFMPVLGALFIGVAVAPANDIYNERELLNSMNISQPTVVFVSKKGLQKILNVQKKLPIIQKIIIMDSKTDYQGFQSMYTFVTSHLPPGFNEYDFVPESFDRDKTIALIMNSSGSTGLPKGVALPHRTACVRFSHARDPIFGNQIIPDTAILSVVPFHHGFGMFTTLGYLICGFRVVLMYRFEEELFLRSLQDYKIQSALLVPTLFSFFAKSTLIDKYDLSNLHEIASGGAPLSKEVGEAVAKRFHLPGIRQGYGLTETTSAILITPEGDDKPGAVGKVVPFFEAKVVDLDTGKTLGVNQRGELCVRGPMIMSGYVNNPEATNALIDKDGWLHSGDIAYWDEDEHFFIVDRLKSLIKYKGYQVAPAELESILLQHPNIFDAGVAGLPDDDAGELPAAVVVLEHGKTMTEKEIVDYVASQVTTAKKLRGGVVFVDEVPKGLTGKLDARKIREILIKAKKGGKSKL
Procedure: (§1) To test the effect of NTPs on the ATP sulfurylase/luciferase coupled read-out system, control reactions for NS5B assays (with 0.3 U ATP sulfurylase) were assembled as above omitting RdRp and RNA. Reactions were initiated by addition of nucleotide (1 μM final). To reduce free PPi in commercial NTPs, 10 mM stocks were pretreated with inorganic pyrophosphatase. A 10 μl aliquot of the NTP stock was incubated with 0.5 U of thermostable inorganic pyrophosphatase for 10 minutes at 75° C.; untreated NTP samples were processed in parallel as controls. Treated and untreated NTPs were diluted to 100 μM working stocks for subsequent assays.
(§2) Another possible source of background is direct utilization of the NTPs by the ATP sulfurylase/luciferase cascade. To address this possibility, reactions without either RdRp or template were examined.

firefly luciferase [2] = conditions: reactions without RdRp or template, nucleotide 1 μM final
Procedure: as §1, §2

Compound: Nc1nc2c(ncn2[C@@H]2O[C@H](COP(=O)(O)OP(=O)(O)OP(=O)(O)O)C[C@H]2O)c(=O)[nH]1 [3′-deoxyguanosine-5′ triphosphate]
Inhibition of NS5B activity (reduced levels of light generated) (HCV NS5B; 30 minute reaction): Dose- and time-dependent inhibition | Mode of inhibition from progress curves (HCV NS5B): consistent with chain termination

Compound: Nc1ncnc2c1ncn2[C@@H]1O[C@H](COP(=O)(O)OP(=O)(O)OP(=O)(O)O)[C@@H](O)[C@H]1O [ATP, Adenosine 5′-triphosphate]
Km (firefly luciferase [1]; read-out: Km for the luciferase reaction, under these experimental conditions, data not shown): 650 ± 40 nM

Utilization of NTP as substrate by the ATP sulfurylase/luciferase cascade (background signal) (firefly luciferase [2]): poor substrate for luciferase
Compound: Nc1ncnc2c1ncn2[C@@H]1O[C@H](COP(O)(=S)OP(=O)(O)OP(=O)(O)O)[C@@H](O)[C@H]1O (stereo partly shown) [ATPαS]

Utilization of NTP as substrate by the ATP sulfurylase/luciferase cascade (background signal) (firefly luciferase [2]): lowest level of signal
Compound: Nc1nc2c(ncn2[C@@H]2O[C@H](COP(=O)(O)OP(=O)(O)OP(=O)(O)O)[C@@H](O)[C@H]2O)c(=O)[nH]1 [GTP]

Compound: O=P(O)(O)OP(=O)(O)OP(=O)(O)OC[C@H]1O[C@@H](n2cnc3c(O)ncnc32)[C@H](O)[C@@H]1O [Inosine triphosphate (ITP), Inosine triphosphate]
Utilization of NTP as substrate by the ATP sulfurylase/luciferase cascade (background signal) (firefly luciferase [2]): relatively good luciferase substrate | Luciferase substrate quality relative to GTP (firefly luciferase [1]; reactions without RdRp or template, nucleotide 1 μM final): about 10 fold
